Data on five compounds can be found in patent US6673938B1, “Substituted pyridine herbicides” (Syngenta Participations AG, priority 1998, dated 2004).

Structures are written as SMILES. “And” between values parts separate entries of the source, which are not always exact repeats. Equal values may be shown once.

Experiment [1] concerns Monocotyledonous and dicotyledonous test plants. In words: Herbicidal action before emergence of the plants (pre-emergence action). It counts as in vivo. The settings on record: evaluated after 3 weeks, nine-step scale; for pre-emergence action, Cyperus / pre-emergence action, Ipomoea / pre-emergence action, Setaria / pre-emergence action, Sinapis / pre-emergence action, Stellaria / pre-emergence action, Solanum: 2000 g/ha. The procedure:
Monocotyledonous and dicotyledonous test plants are sown in standard soil in plastic pots. Immediately after sowing, the test substances as aqueous suspensions (prepared with a 25% wettable powder (Example F3, b) in accordance with WO 97/34485) or as emulsions (prepared with a 25% emulsion concentrate (Example F1, c)) are sprayed on at a rate of 2 kg of a.i./ha or 250 g of a.i./ha (500 l of water/ha). The test plants are then grown in the greenhouse under optimal conditions. After a test period of 3 weeks, the experiment is evaluated with reference to a nine-step scale (1=complete damage, 9=no effect). Score figures of 1 to 4 (in particular 1 to 3) mean a good to very good herbicidal action.

For experiment [2] the test system is unchanged. In words: Post-emergence herbicidal action. It counts as in vivo. The settings on record: evaluated after approximately 18 days; for Post-emergence action, Ipomoea / Post-emergence action, Lolium / Post-emergence action, Setaria / Post-emergence action, Sinapis / Post-emergence action, Solanum / Post-emergence action, Stellaria: 2000 g/ha, sprayed in 4- to 6-leaf stage, nine-step scale. The method, boiled down:
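Greenhouse plants sprayed at the 4- to 6-leaf stage with test substance as wettable-powder suspension or emulsion-concentrate emulsion, 2 kg or 250 g a.i./ha in 500 l water/ha. Scored after about 18 days on a nine-step scale (1=complete damage, 9=no effect).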

With `CCOC(=O)OCc1nc(C(F)(F)F)ccc1C(=O)C1=C(O)C(C)(C)C(=O)C(C)(C)C1=O` [Compound A1208-B354], the “Pre-emergence action, Abutilon” value in experiment [1] (Abutilon, 250 g/ha) was 1. Moreover, the “Pre-emergence action, Amaranthus” value in experiment [1] (Amaranthus, 250 g/ha) worked out at 1. In addition, the “Pre-emergence action, Chenop.” value in experiment [1] (Chenop., 250 g/ha) amounted to 1. Also, the “Pre-emergence action, Digitaria” value in experiment [1] (Digitaria, 250 g/ha) came to 1. The “Pre-emergence action, Echino.” value in experiment [1] (Echino., 250 g/ha) was found to be 1. For the same compound, in experiment [1] (Panicum, 250 g/ha), the “Pre-emergence action, Panicum” value amounted to 1. Moreover, the “Post-emergence action: Abutilon (score, nine-step scale)” value in experiment [2] (Abutilon, 250 g/ha, sprayed at 4- to 6-leaf stage) came to 1. Moreover, the “Post-emergence action: Chenop. (score, nine-step scale)” value in experiment [2] (Chenop., 250 g/ha, sprayed at 4- to 6-leaf stage) amounted to 2. The “Post-emergence action: Digitaria (score, nine-step scale)” value in experiment [2] (Digitaria, 250 g/ha, sprayed at 4- to 6-leaf stage) was 4. Moreover, the “Post-emergence action: Echino. (score, nine-step scale)” value in experiment [2] (Echino., 250 g/ha, sprayed at 4- to 6-leaf stage) is listed as 2. Besides, the “Post-emergence action: Ipopur. (score, nine-step scale)” value in experiment [2] (Ipopur., 250 g/ha, sprayed at 4- to 6-leaf stage) amounted to 2. In addition, the “Post-emergence action: Panicum (score, nine-step scale)” value in experiment [2] (Panicum, 250 g/ha, sprayed at 4- to 6-leaf stage) stood at 3. Also, the “Post-emergence action: Xanth. (score, nine-step scale)” value in experiment [2] (Xanth., 250 g/ha, sprayed at 4- to 6-leaf stage) was 2.

As to `Cc1nc(C(F)(F)F)ccc1C(=O)C1=C(O)CC2CCCC2C1=O` (stereo not drawn) [Compound A2-D36], in experiment [1], the “pre-emergence action, Cyperus” value amounted to 1; the “pre-emergence action, Ipomoea” value is given as 2; the “pre-emergence action, Setaria” value is 2 and 1; the “pre-emergence action, Sinapis” value came out at 2. Moreover, the “pre-emergence action, Stellaria” value in experiment [1] was 1. In experiment [2], the “Post-emergence action, Ipomoea” value is 2; the “Post-emergence action, Lolium” value is 2 and 1; the “Post-emergence action, Setaria” value is 2 and 1; the “Post-emergence action, Sinapis” value stood at 1. For the same compound, in experiment [2], the “Post-emergence action, Solanum” value is 2 and 1; the “Post-emergence action, Stellaria” value is 2 and 1.

Regarding `COCc1nc(C(F)(F)F)ccc1C(=O)C1=C(O)CC(C(F)(F)F)CC1=O` (stereo not drawn) [Compound A8-B1064], in experiment [1], the “pre-emergence action, Cyperus” value stood at 2; the “pre-emergence action, Ipomoea” value is on record as 4; the “pre-emergence action, Setaria” value came to 3; the “pre-emergence action, Sinapis” value was 2. Also, in experiment [1], the “pre-emergence action, Solanum” value was 1 and the “pre-emergence action, Stellaria” value was 3. Moreover, in experiment [2], the “Post-emergence action, Ipomoea” value was determined as 2; the “Post-emergence action, Lolium” value is 4; the “Post-emergence action, Setaria” value is reported as 2; the “Post-emergence action, Sinapis” value is listed as 1. In addition, in experiment [2], the “Post-emergence action, Solanum” value was 1 and the “Post-emergence action, Stellaria” value turned out to be 2.

For `CCC1(C)CCC(=O)C(C(=O)c2ccc(C(F)(F)F)nc2C)=C1O` (stereo not drawn) [Compound A2-B25], in experiment [1], the “pre-emergence action, Cyperus” value is on record as 2; the “pre-emergence action, Ipomoea” value is given as 3; the “pre-emergence action, Setaria” value was 2; the “pre-emergence action, Sinapis” value is 2. In experiment [1], the “pre-emergence action, Solanum” value stood at 1 and the “pre-emergence action, Stellaria” value was found to be 2. Moreover, in experiment [2], the “Post-emergence action, Ipomoea” value came to 1; the “Post-emergence action, Lolium” value is on record as 2; the “Post-emergence action, Setaria” value was 2; the “Post-emergence action, Sinapis” value amounted to 2. Further, in experiment [2], the “Post-emergence action, Solanum” value is given as 1 and the “Post-emergence action, Stellaria” value was 2.

In the case of `Cc1nc(C(F)(F)F)ccc1C(=O)C1=C(O)C(C)(C)OC(C)(C)C1=O` [Compound A2-B618], in experiment [1], the “pre-emergence action, Cyperus” value came to 1; the “pre-emergence action, Ipomoea” value is recorded as 1; the “pre-emergence action, Setaria” value is given as 1; the “pre-emergence action, Sinapis” value was determined as 2. In addition, in experiment [1], the “pre-emergence action, Solanum” value is recorded as 1 and the “pre-emergence action, Stellaria” value is on record as 1. For the same compound, in experiment [2], the “Post-emergence action, Ipomoea” value was found to be 2; the “Post-emergence action, Lolium” value turned out to be 2; the “Post-emergence action, Setaria” value is on record as 2; the “Post-emergence action, Sinapis” value came to 1. Also, in experiment [2], the “Post-emergence action, Solanum” value is given as 2 and the “Post-emergence action, Stellaria” value was determined as 2.
